Measurements reported in US20250059171A1 (Hoffmann-La Roche Inc., priority 2021, published 2025).

Experiments:
[1] = biological target: SARS-CoV 3CLpro (Severe acute respiratory syndrome coronavirus, UniProt P0C6X7); test: biochemical
[2] = biological target: MERS-CoV 3CLpro (Middle East respiratory syndrome-related coronavirus, UniProt K9N7C7); test: biochemical
[3] = biological target: SARS-CoV-2 3CLpro (Severe acute respiratory syndrome coronavirus 2, UniProt P0DTD1); test: biochemical
[4] = biological target: HCoV-229E 3CLpro (Human coronavirus 229E, UniProt P0C6X1); test: HCoV-229E 3CLpro inhibition assay (FRET); type: biochemical
HCoV-229E 3CLpro, sequence (P0C6X1 2966-3267): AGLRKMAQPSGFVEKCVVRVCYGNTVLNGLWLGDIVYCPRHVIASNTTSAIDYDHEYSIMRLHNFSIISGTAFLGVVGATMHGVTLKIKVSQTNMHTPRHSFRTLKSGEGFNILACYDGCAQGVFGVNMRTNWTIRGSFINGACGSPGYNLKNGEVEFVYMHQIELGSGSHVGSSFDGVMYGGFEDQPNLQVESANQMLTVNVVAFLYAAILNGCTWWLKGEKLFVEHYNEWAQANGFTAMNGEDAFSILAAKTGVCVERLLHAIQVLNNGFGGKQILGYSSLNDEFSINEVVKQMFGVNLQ

MERS-CoV 3CLpro, sequence (K9N7C7 3248-3553): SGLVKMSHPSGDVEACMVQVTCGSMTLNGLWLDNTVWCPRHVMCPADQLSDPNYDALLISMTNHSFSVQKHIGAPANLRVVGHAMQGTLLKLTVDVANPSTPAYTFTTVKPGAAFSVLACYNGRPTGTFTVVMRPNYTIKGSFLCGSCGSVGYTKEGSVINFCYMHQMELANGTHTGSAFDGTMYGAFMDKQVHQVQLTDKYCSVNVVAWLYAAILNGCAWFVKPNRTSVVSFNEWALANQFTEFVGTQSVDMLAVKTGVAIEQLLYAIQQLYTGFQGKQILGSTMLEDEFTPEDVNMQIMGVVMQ

| Compound | IC50 [1] | IC50 [2] | IC50 [3] | IC50 [4] |
| --- | --- | --- | --- | --- |
| CC1(C)[C@@H]2[C@@H](C(=O)NN(C[C@@H]3CCNC3=O)C(=O)[C@H](F)Cl)N(C(=O)[C@@H](NC(=O)C3(F)CC3)C3CCC3)C[C@@H]21 [Example 156, N-[(1S)-2-[(1R,2S,5S)-2-[[[(2R)-2-chloro-2-fluoro-acetyl]-[[(3S)-2-oxopyrrolidin-3-yl]methyl]amino]carbamoyl]-6,6-dimethyl-3-azabicyclo[3.1.0]hexan-3-yl]-1-cyclobutyl-2-oxo-ethyl]-1-fluoro-cyclopropanecarboxamide] | 28 nM | 106 nM | 14 nM | 32 nM |
| CC1(C)[C@@H]2[C@@H](C(=O)NN(C[C@@H]3CCNC3=O)C(=O)[C@@H](F)Cl)N(C(=O)[C@@H](NC(=O)C3(F)CC3)C3CCC3)C[C@@H]21 [Example 157, N-[(1S)-2-[(1R,2S,5S)-2-[[[(2S)-2-chloro-2-fluoro-acetyl]-[[(3S)-2-oxopyrrolidin-3-yl]methyl]amino]carbamoyl]-6,6-dimethyl-3-azabicyclo[3.1.0]hexan-3-yl]-1-cyclobutyl-2-oxo-ethyl]-1-fluoro-cyclopropanecarboxamide] | 58 nM | 149 nM | 44 nM | 60 nM |
| CC(C)(C)[C@H](NC(=O)[C@@H]1CC1(F)F)C(=O)N1C[C@H](C(F)(F)F)C[C@H]1C(=O)NN(C[C@@H]1CCNC1=O)C(=O)[C@H](F)Cl [Example 158, (1S)—N-[(1S)-1-[(2S,4R)-2-[[[(2R)-2-chloro-2-fluoro-acetyl]-[[(3S)-2-oxopyrrolidin-3-yl]methyl]amino]carbamoyl]-4-(trifluoromethyl)pyrrolidine-1-carbonyl]-2,2-dimethyl-propyl]-2,2-difluoro-cyclopropanecarboxamide] | 17 nM | 80 nM | 11 nM | 34 nM |
| CC(C)(C)[C@H](NC(=O)[C@@H]1CC1(F)F)C(=O)N1C[C@H](C(F)(F)F)C[C@H]1C(=O)NN(C[C@@H]1CCNC1=O)C(=O)[C@@H](F)Cl [Example 159, (1S)—N-[(1S)-1-[(2S,4R)-2-[[[(2S)-2-chloro-2-fluoro-acetyl]-[[(3S)-2-oxopyrrolidin-3-yl]methyl]amino]carbamoyl]-4-(trifluoromethyl)pyrrolidine-1-carbonyl]-2,2-dimethyl-propyl]-2,2-difluoro-cyclopropanecarboxamide] | 13 nM | 103 nM | 13 nM | 40 nM |
| CC[C@H](C)[C@H](NC(=O)C1(F)CC1)C(=O)N1C[C@H](C(F)(F)F)C[C@H]1C(=O)NN(C[C@@H]1CCNC1=O)C(=O)[C@H](F)Cl [Example 160, N-[(1S,2S)-1-[(2S,4R)-2-[[[(2R)-2-chloro-2-fluoro-acetyl]-[[(3S)-2-oxopyrrolidin-3-yl]methyl]amino]carbamoyl]-4-(trifluoromethyl)pyrrolidine-1-carbonyl]-2-methyl-butyl]-1-fluoro-cyclopropanecarboxamide] | 19 nM | 105 nM | 13 nM | 24 nM |
| CC[C@H](C)[C@H](NC(=O)C1(F)CC1)C(=O)N1C[C@H](C(F)(F)F)C[C@H]1C(=O)NN(C[C@@H]1CCNC1=O)C(=O)[C@@H](F)Cl [Example 161, N-[(1S,2S)-1-[(2S,4R)-2-[[[(2S)-2-chloro-2-fluoro-acetyl]-[[(3S)-2-oxopyrrolidin-3-yl]methyl]amino]carbamoyl]-4-(trifluoromethyl)pyrrolidine-1-carbonyl]-2-methyl-butyl]-1-fluoro-cyclopropanecarboxamide] | 27 nM | 336 nM | 16 nM | 99 nM |
| CC(C)(C)C[C@H](NC(=O)C1(F)CC1)C(=O)N1C[C@H]2[C@@H]([C@H]1C(=O)NN(C[C@@H]1CCNC1=O)C(=O)[C@H](F)Cl)C2(C)C [Example 162, N-[(1S)-1-[(1R,2S,5S)-2-[[[(2R)-2-chloro-2-fluoro-acetyl]-[[(3S)-2-oxopyrrolidin-3-yl]methyl]amino]carbamoyl]-6,6-dimethyl-3-azabicyclo[3.1.0]hexane-3-carbonyl]-3,3-dimethyl-butyl]-1-fluoro-cyclopropanecarboxamide] | 15 nM | 94 nM | 12 nM | 33 nM |
| CC(C)(C)[C@H](NC(=O)C(F)(F)F)C(=O)N1C[C@@H]2CCC[C@@H]2[C@H]1C(=O)NN(C[C@@H]1CCCNC1=O)C(=O)[C@H](F)Cl [Example 164a, N-[(1S)-1-[(3S,3aS,6aR)-3-[[[(2R)-2-chloro-2-fluoro-acetyl]-[[(3S)-2-oxo-3-piperidyl]methyl]amino]carbamoyl]-3,3a,4,5,6,6a-hexahydro-1H-cyclopenta[c]pyrrole-2-carbonyl]-2,2-dimethyl-propyl]-2,2,2-trifluoro-acetamide] | 16 nM | 243 nM | 8 nM | 98 nM |
| CC[C@H](C)[C@H](NC(=O)C1(F)CC1)C(=O)N1C[C@H]2[C@@H]([C@H]1C(=O)NN(C[C@@H]1CCCNC1=O)C(=O)[C@H](F)Cl)C2(C)C [Example 166a, N-[(1S,2S)-1-[(1R,2S,5S)-2-[[[(2R)-2-chloro-2-fluoro-acetyl]-[[(3S)-2-oxo-3-piperidyl]methyl]amino]carbamoyl]-6,6-dimethyl-3-azabicyclo[3.1.0]hexane-3-carbonyl]-2-methyl-butyl]-1-fluoro-cyclopropanecarboxamide] | 18 nM | 229 nM | 13 nM | 47 nM |
| CC[C@H](C)[C@H](NC(=O)C1(F)CC1)C(=O)N1C[C@H]2[C@@H]([C@H]1C(=O)NN(C[C@H]1CCCNC1=O)C(=O)[C@H](F)Cl)C2(C)C [Example 166b, N-[(1S,2S)-1-[(1R,2S,5S)-2-[[[(2R)-2-chloro-2-fluoro-acetyl]-[[(3R)-2-oxo-3-piperidyl]methyl]amino]carbamoyl]-6,6-dimethyl-3-azabicyclo[3.1.0]hexane-3-carbonyl]-2-methyl-butyl]-1-fluoro-cyclopropanecarboxamide] | 30 nM | 239 nM | 19 nM | 51 nM |
| CCC(C)(C)[C@H](NC(=O)C1CC1)C(=O)N1C[C@@H]2CCC[C@@H]2[C@H]1C(=O)NN(C[C@@H]1CCCNC1=O)C(=O)[C@H](F)Cl [Example 167a, N-[(1S)-1-[(3S,3aS,6aR)-3-[[[(2R)-2-chloro-2-fluoro-acetyl]-[[(3S)-2-oxo-3-piperidyl]methyl]amino]carbamoyl]-3,3a,4,5,6,6a-hexahydro-1H-cyclopenta[c]pyrrole-2-carbonyl]-2,2-dimethyl-butyl]cyclopropanecarboxamide] | 15 nM | 169 nM | 10 nM | 53 nM |
| CCC(C)(C)[C@H](NC(=O)C1CC1)C(=O)N1C[C@@H]2CCC[C@@H]2[C@H]1C(=O)NN(C[C@H]1CCCNC1=O)C(=O)[C@H](F)Cl [Example 167b, N-[(1S)-1-[(3S,3aS,6aR)-3-[[[(2R)-2-chloro-2-fluoro-acetyl]-[[(3R)-2-oxo-3-piperidyl]methyl]amino]carbamoyl]-3,3a,4,5,6,6a-hexahydro-1H-cyclopenta[c]pyrrole-2-carbonyl]-2,2-dimethyl-butyl]cyclopropanecarboxamide] | 41 nM | 1630 nM | 19 nM | 210 nM |
| CCC(C)(C)[C@H](NC(=O)C1CC1)C(=O)N1CC(C)(C)C[C@H]1C(=O)NN(C[C@@H]1CCCNC1=O)C(=O)[C@H](F)Cl [Example 168a, N-[(1S)-1-[(2S)-2-[[[(2R)-2-chloro-2-fluoro-acetyl]-[[(3S)-2-oxo-3-piperidyl]methyl]amino]carbamoyl]-4,4-dimethyl-pyrrolidine-1-carbonyl]-2,2-dimethyl-butyl]cyclopropanecarboxamide] | 16 nM | 290 nM | 11 nM | 104 nM |
| CCC(C)(C)[C@H](NC(=O)C1CC1)C(=O)N1CC(C)(C)C[C@H]1C(=O)NN(C[C@H]1CCCNC1=O)C(=O)[C@H](F)Cl [Example 168b, N-[(1S)-1-[(2S)-2-[[[(2R)-2-chloro-2-fluoro-acetyl]-[[(3R)-2-oxo-3-piperidyl]methyl]amino]carbamoyl]-4,4-dimethyl-pyrrolidine-1-carbonyl]-2,2-dimethyl-butyl]cyclopropanecarboxamide] | 185 nM | 2110 nM | 100 nM | 219 nM |
| CCC(C)(C)[C@H](NC(=O)C1CC1)C(=O)N1C[C@H]2[C@@H]([C@H]1C(=O)NN(C[C@@H]1CCCNC1=O)C(=O)[C@H](F)Cl)C2(C)C [Example 169a, N-[(1S)-1-[(1R,2S,5S)-2-[[[(2R)-2-chloro-2-fluoro-acetyl]-[[(3S)-2-oxo-3-piperidyl]methyl]amino]carbamoyl]-6,6-dimethyl-3-azabicyclo[3.1.0]hexane-3-carbonyl]-2,2-dimethyl-butyl]cyclopropanecarboxamide] | 20 nM | 118 nM | 9 nM | 56 nM |
| CC[C@H](C)[C@H](NC(=O)C1(F)CC1)C(=O)N1C[C@@H]2CCC[C@@H]2[C@H]1C(=O)NN(C[C@@H]1CCCNC1=O)C(=O)[C@H](F)Cl [Example 170a, N-[(1S,2S)-1-[(3S,3aS,6aR)-3-[[[(2R)-2-chloro-2-fluoro-acetyl]-[[(3S)-2-oxo-3-piperidyl]methyl]amino]carbamoyl]-3,3a,4,5,6,6a-hexahydro-1H-cyclopenta[c]pyrrole-2-carbonyl]-2-methyl-butyl]-1-fluoro-cyclopropanecarboxamide] | 25 nM | 276 nM | 16 nM | 107 nM |
